How the values were obtained:
[1] = system: Influenza B virus; test: Antiviral activity against Influenza B virus Lee/40 infected in human bronchial/tracheal epithelial cells after 5 days by fluorescence assay; type: functional, organism-based; details: B/Lee/1940, Epithelial cell, Trachea, 120 h
[2] = system: Influenza A virus; test: Antiviral activity against Influenza A virus PC/1/73 infected in human bronchial/tracheal epithelial cells after 5 days by fluorescence assay; type: functional, organism-based; details: PC/1/73, Epithelial cell, Trachea, 120 h

| Compound | EC50 [1] | EC50 [2] |
| --- | --- | --- |
| Nc1ncnn2c([C@@H]3O[C@H](CO)[C@@H](O)[C@H]3F)cnc12 | 0.9 µM | 0.9 µM |
| CCOc1nc(N)nn2c([C@@H]3O[C@H](CO)[C@@H](O)[C@H]3F)cnc12 | > 200 µM | > 200 µM |
| Nc1nc(N)c2ncc([C@@H]3O[C@H](CO)[C@@H](O)[C@H]3F)n2n1 | 51 µM | 21 µM |
| Nc1nc(F)nn2c([C@@H]3O[C@H](CO)[C@@H](O)[C@H]3F)cnc12 | > 100 µM | > 100 µM |

From ChEMBL document CHEMBL3098062, “Influenza RNA-Dependent RNA Polymerase (RdRp) Inhibitors: Potential New Therapy for Influenza Treatment” (ACS Med Chem Lett, 2013)
